Source: patent US8952024B2, “Herbicidal pyrimidone derivatives” (E I du Pont de Nemours and Company, priority 2009, dated 2015)

Tests used:
Assay in all cases: Test A pre-/postemergence plant response
Assay type in all cases: in vivo
[1] = tested on: barnyardgrass (Echinochloa crus-galli)
Text: (§1) Seeds of barnyardgrass (Echinochloa crus-galli), large crabgrass (Digitaria sanguinalis), giant foxtail (Setaria faberii), morningglory (Ipomoea spp.), pigweed (Amaranthus retroflexus), velvetleaf (Abutilon theophrasti), wheat (Triticum aestivum) and corn (Zea mays) were planted into a blend of loam soil and sand and treated preemergence with a directed soil spray using test chemicals formulated in a non-phytotoxic solvent mixture which included a surfactant. At the same time these species were also treated with postemergence applications of test compounds formulated in the same manner.
(§2) Plants ranged in height from two to ten cm and were in the one- to two-leaf stage for the postemergence treatment. Treated plants and untreated controls were maintained in a greenhouse for approximately ten days, after which time all treated plants were compared to untreated controls and visually evaluated for injury. Plant response ratings, summarized in Table A, are based on a 0 to 100 scale where 0 is no effect and 100 is complete control. A dash (-) response means no test result.

corn (Zea mays) = tested on: corn (Zea mays)
Text: as §1, §2

[2] = tested on: giant foxtail (Setaria faberii)
Text: as §1, §2

[3] = tested on: large crabgrass (Digitaria sanguinalis)
Text: as §1, §2

[4] = tested on: morningglory (Ipomoea spp.)
Text: as §1, §2

[5] = tested on: pigweed (Amaranthus retroflexus)
Text: as §1, §2

[6] = tested on: velvetleaf (Abutilon theophrasti); conditions: for Velvetleaf plant response rating: visual injury, 0 to 100 scale (0 no effect, 100 complete control)
Text: as §1, §2

[7] = tested on: wheat (Triticum aestivum); conditions: for Wheat plant response rating: visual injury, 0 to 100 scale (0 no effect, 100 complete control)
Text: as §1, §2

[8] = Postemergence, 125 g ai/ha, 0 to 100 scale where 0 is no effect and 100 is complete control
[9] = Postemergence, 500 g ai/ha, 0 to 100 scale, 0 = no effect, 100 = complete control, approx. ten days
[10] = Preemergence, 125 g ai/ha, 0 to 100 scale, 0 = no effect, 100 = complete control
[11] = Preemergence, 500 g ai/ha, visual injury, 0 to 100 scale (0 no effect, 100 complete control), approx. ten days
[12] = Preemergence, 500 g ai/ha, 0 to 100 scale, 0 = no effect, 100 = complete control
[13] = Postemergence, 500 g ai/ha, visual injury, 0 to 100 scale (0 no effect, 100 complete control), approx. ten days
[14] = Postemergence, 500 g ai/ha, approx. ten days

SMILES	Plant response rating, Barnyardgrass [1, 8]	Plant response rating, Barnyardgrass [1, 10]	Plant response rating, Corn (corn (Zea mays); [8])	Plant response rating, Corn (corn (Zea mays); [10])	Plant response rating, Foxtail, Giant [2, 8]	Plant response rating, Foxtail, Giant [2, 10]	Plant response rating, Crabgrass, Large [3, 8]	Plant response rating, Crabgrass, Large [3, 10]	Plant response rating, Morningglory [4, 8]	Plant response rating, Morningglory [4, 10]	Plant response rating, Pigweed [5, 8]	Plant response rating, Pigweed [5, 10]	Plant response rating, Velvetleaf [6, 8]	Plant response rating, Velvetleaf [6, 10]	Plant response rating, Velvetleaf [6, 12]	Plant response rating, Wheat [7, 8]	Plant response rating, Wheat [7, 10]	Plant response rating, Wheat [7, 12]	Barnyardgrass plant response rating [1, 13]	Plant response rating, Barnyardgrass [1, 12]	other results
CCCn1c(-c2ccc3c(c2)OCCO3)ncc(C(=O)C2=C(O)CCCC2=O)c1=O [Compound 149]	70	20	0	0	60	10	40	30	100	0	70	80	100	40	70	20	0	20			Plant response rating, Barnyardgrass [1, 9]: 90; Plant response rating, Barnyardgrass [1, 11]: 50; Plant response rating, Corn (corn (Zea mays); [9]): 30; Plant response rating, Corn (corn (Zea mays); [11]): 20; Plant response rating, Foxtail, Giant [2, 9]: 80; Plant response rating, Foxtail, Giant [2, 11]: 60; Plant response rating, Crabgrass, Large [3, 9]: 70; Plant response rating, Crabgrass, Large [3, 11]: 80; Plant response rating, Morningglory [4, 9]: 100; Plant response rating, Morningglory [4, 11]: 40; Plant response rating, Pigweed [5, 9]: 100; Plant response rating, Pigweed [5, 11]: 100; Plant response rating, Velvetleaf [6, 9]: 100; Plant response rating, Wheat [7, 9]: 50
Cc1ccc(-n2c(-c3cccc(F)c3)ncc(C(=O)C3=C(O)CCCC3=O)c2=O)cc1 [Compound 202]	90	20	10	20	80	50	70	50	100	0	100	90	100	70	100	20	0	40	100	100	Corn plant response rating (corn (Zea mays); [13]): 30; Plant response rating, Corn (corn (Zea mays); [12]): 40; Foxtail, Giant plant response rating [2, 13]: 100; Plant response rating, Foxtail, Giant [2, 12]: 100; Crabgrass, Large plant response rating [3, 13]: 100; Plant response rating, Crabgrass, Large [3, 12]: 100; Morningglory plant response rating [4, 13]: 100; Plant response rating, Morningglory [4, 12]: 100; Pigweed plant response rating [5, 13]: 100; Plant response rating, Pigweed [5, 12]: 100; Velvetleaf plant response rating [6, 14]: 100; Wheat plant response rating [7, 14]: 50
CCCn1c(-c2ccc3ccccc3c2)ncc(C(=O)C2=C(O)CCCC2=O)c1=O [Compound 150]	40	0	0	0	40	0	20	0	100	0	30	0	50	0	0	0	0	0			Plant response rating, Barnyardgrass [1, 9]: 80; Plant response rating, Barnyardgrass [1, 11]: 0; Plant response rating, Corn (corn (Zea mays); [9]): 0; Plant response rating, Corn (corn (Zea mays); [11]): 0; Plant response rating, Foxtail, Giant [2, 9]: 70; Plant response rating, Foxtail, Giant [2, 11]: 0; Plant response rating, Crabgrass, Large [3, 9]: 50; Plant response rating, Crabgrass, Large [3, 11]: 10; Plant response rating, Morningglory [4, 9]: 100; Plant response rating, Morningglory [4, 11]: 0; Plant response rating, Pigweed [5, 9]: 60; Plant response rating, Pigweed [5, 11]: 0; Plant response rating, Velvetleaf [6, 9]: 90; Plant response rating, Wheat [7, 9]: 20
O=C1CCCC(O)=C1C(=O)c1cnc(-c2ccccc2)n(C2CCCCCCCCCCC2)c1=O [Compound 165]	0	0	0	0	20	0	20	0	50		80	0	100	0	0	0	0	0	80	0	Corn plant response rating (corn (Zea mays); [13]): 30; Plant response rating, Corn (corn (Zea mays); [12]): 0; Foxtail, Giant plant response rating [2, 13]: 30; Plant response rating, Foxtail, Giant [2, 12]: 0; Crabgrass, Large plant response rating [3, 13]: 50; Plant response rating, Crabgrass, Large [3, 12]: 0; Morningglory plant response rating [4, 13]: 100; Plant response rating, Morningglory [4, 12]: 0; Pigweed plant response rating [5, 13]: 100; Plant response rating, Pigweed [5, 12]: 0; Velvetleaf plant response rating [6, 14]: 100; Wheat plant response rating [7, 14]: 0
O=C1CCCC(O)=C1C(=O)c1cnc(-c2cc(F)c(F)c(F)c2)n(C2CCCCC2)c1=O [Compound 205]	90	0	0	0	40	10	60	20	100	0	90	10	100	10	80	0	0	0	100	10	Corn plant response rating (corn (Zea mays); [13]): 20; Plant response rating, Corn (corn (Zea mays); [12]): 0; Foxtail, Giant plant response rating [2, 13]: 90; Plant response rating, Foxtail, Giant [2, 12]: 80; Crabgrass, Large plant response rating [3, 13]: 90; Plant response rating, Crabgrass, Large [3, 12]: 90; Morningglory plant response rating [4, 13]: 100; Plant response rating, Morningglory [4, 12]: 60; Pigweed plant response rating [5, 13]: 100; Plant response rating, Pigweed [5, 12]: 90; Velvetleaf plant response rating [6, 14]: 100; Wheat plant response rating [7, 14]: 10
